Measurements: patent US20130102595A1 (Curis, Inc., priority 2011, published 2013)

Assays:
PI3Kα (p110α/p85α) = target: T1, PI3Kα (p110α/p85α) (Homo sapiens, UniProt P42336); experiment: PI3Kα ADP-Glo assay; format: biochemical; conditions: 20 μM PIP2, 10 μM ATP, 30 minutes
T1 construct: GST (N); made in house; host or cells: Baculovirus-infected Sf9 cells
Procedure, shortened: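 Recombinant full-length human GST-p110α/His-p85α, co-expressed in Sf9 cells, was incubated 30 min at room temperature with 20 μM PIP2 and 10 μM ATP. The buffer was 50 mM HEPES pH 7.4, 150 mM NaCl, 5 mM MgCl2, 1 mM DTT, 3 µM orthovanadate and 0.5% DMSO. ADP formed was detected by ADP-Glo luminescence.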

[1] = test system: HDACs (HeLa cell nuclear extracts); experiment: HDAC enzymatic activity, Biomol Color de Lys system; format: biochemical; conditions: 1 hour, 25° C.
Procedure, shortened: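 HeLa nuclear extract incubated with serially diluted compound and […] artificial substrate in 50 mM Tris/Cl pH 8.0, 137 mM NaCl, 2.7 mM KCl, 1 mM MgCl2. Run 1 h at 25 °C, stopped with developer. Fluorescence read (ex 350-380, em 440-460 nm); IC50 from sigmoidal dose-response fit.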

T1 sequence (P42336 whole entry): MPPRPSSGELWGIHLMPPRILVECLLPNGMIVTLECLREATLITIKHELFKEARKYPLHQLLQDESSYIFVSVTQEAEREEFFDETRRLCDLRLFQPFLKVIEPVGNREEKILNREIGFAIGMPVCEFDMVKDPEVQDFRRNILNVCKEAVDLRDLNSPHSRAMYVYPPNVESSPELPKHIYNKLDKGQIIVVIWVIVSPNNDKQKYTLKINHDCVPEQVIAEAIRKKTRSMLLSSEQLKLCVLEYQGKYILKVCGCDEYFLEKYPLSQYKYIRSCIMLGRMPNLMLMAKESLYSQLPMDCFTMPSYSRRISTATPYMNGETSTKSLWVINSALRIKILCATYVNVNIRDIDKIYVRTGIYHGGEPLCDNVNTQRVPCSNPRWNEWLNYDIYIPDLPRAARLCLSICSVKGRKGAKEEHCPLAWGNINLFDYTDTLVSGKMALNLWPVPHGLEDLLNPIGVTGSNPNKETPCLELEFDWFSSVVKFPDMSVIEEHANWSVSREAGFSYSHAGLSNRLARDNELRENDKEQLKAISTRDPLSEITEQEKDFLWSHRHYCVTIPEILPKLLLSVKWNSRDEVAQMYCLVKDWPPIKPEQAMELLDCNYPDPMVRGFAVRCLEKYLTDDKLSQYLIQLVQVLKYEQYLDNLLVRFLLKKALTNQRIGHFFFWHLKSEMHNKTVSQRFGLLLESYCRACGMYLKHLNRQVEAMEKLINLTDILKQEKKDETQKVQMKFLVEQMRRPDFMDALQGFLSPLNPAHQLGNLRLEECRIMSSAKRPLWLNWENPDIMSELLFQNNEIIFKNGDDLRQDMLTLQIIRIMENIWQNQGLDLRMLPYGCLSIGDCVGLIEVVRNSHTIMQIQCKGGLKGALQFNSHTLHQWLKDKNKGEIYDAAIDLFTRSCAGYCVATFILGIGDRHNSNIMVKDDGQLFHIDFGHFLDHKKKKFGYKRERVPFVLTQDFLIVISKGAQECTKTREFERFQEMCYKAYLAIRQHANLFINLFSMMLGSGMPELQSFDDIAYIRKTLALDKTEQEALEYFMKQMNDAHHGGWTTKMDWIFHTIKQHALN
T1 sequence (P27986 whole entry partner): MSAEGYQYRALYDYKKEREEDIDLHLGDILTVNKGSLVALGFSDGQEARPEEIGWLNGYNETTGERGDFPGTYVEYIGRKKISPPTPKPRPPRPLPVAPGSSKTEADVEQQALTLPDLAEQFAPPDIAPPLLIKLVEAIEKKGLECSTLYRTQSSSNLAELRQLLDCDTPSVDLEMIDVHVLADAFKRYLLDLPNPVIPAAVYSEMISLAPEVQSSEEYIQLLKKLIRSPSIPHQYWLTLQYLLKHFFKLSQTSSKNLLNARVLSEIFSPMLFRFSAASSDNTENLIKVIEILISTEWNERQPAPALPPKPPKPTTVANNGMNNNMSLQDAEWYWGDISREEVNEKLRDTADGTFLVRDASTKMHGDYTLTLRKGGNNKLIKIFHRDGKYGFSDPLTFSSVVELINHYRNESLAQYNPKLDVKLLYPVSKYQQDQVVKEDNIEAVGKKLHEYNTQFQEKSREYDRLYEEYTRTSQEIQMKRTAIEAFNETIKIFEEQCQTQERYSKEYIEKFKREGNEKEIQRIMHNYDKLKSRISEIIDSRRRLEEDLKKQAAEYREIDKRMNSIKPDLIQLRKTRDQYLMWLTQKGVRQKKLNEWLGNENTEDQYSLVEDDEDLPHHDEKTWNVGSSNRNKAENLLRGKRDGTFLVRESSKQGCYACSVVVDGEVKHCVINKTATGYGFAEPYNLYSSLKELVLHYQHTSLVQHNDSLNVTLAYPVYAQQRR

| melting point | IC50 (PI3Kα (p110α/p85α)) [nM] | IC50 [1] [nM] | SMILES |
| --- | --- | --- | --- |
| 208 to 210 °C | > 10000 | < 100 | CN(C)c1ccc(-c2nc(N3CCOCC3)c3sc(CN(C)c4ncc(C(=O)NO)cn4)cc3n2)cc1 [Compound 152, 2-(((2-(4-(dimethylamino)phenyl)-4-morpholinothieno[3,2-d]pyrimidin-6-yl)methyl)(methyl)amino)-N-hydroxypyrimidine-5-carboxamide] |
| 185 to 187 °C | > 10000 | < 100 | CCNc1ccc(-c2nc(N3CCOCC3)c3sc(CN(C)c4ncc(C(=O)NO)cn4)cc3n2)cc1 [Compound 153, 2-(((2-(4-(ethylamino)phenyl)-4-morpholinothieno[3,2-d]pyrimidin-6-yl)methyl)(methyl)amino)-N-hydroxypyrimidine-5-carboxamide] |
| 192 to 196 °C | > 10000 | < 100 | CCN(CC)c1ccc(-c2nc(N3CCOCC3)c3sc(CN(C)c4ncc(C(=O)NO)cn4)cc3n2)cc1 [Compound 154, 2-(((2-(4-(Diethylamino)phenyl)-4-morpholinothieno[3,2-d]pyrimidin-6-yl)methyl)(methyl)amino)-N-hydroxypyrimidine-5-carboxamide] |
| 187 to 192 °C | > 10000 | < 100 | CN(Cc1cc2nc(-c3ccc(N4CCCC4)cc3)nc(N3CCOCC3)c2s1)c1ncc(C(=O)NO)cn1 [Compound 155, N-hydroxy-2-(methyl((4-morpholino-2-(4-(pyrrolidin-1-yl)phenyl)thieno[3,2-d]pyrimidin-6-yl)methyl)amino)pyrimidine-5-carboxamide] |
| 222 to 225 °C | 100 to 1000 | < 100 | CN(Cc1cc2nc(-c3ccc(N)c(N)c3)nc(N3CCOCC3)c2s1)c1ncc(C(=O)NO)cn1 [Compound 156, 2-(((2-(3,4-diaminophenyl)-4-morpholinothieno[3,2-d]pyrimidin-6-yl)methyl)(methyl)amino)-N-hydroxypyrimidine-5-carboxamide] |
| 232 to 235 °C | < 100 | < 100 | CN(Cc1cc2nc(-c3cccc4[nH]ncc34)nc(Nc3ccccc3)c2s1)c1ncc(C(=O)NO)cn1 [Compound 164, 2-(((2-(1H-indazol-4-yl)-4-(phenylamino)thieno[3,2-d]pyrimidin-6-yl)methyl)(methyl)amino)-N-hydroxypyrimidine-5-carboxamide] |
| 200 to 203 °C | 1000 to 10000 | < 100 | CN(Cc1cc2nc(-c3cccc4[nH]ncc34)nc(Nc3ccccn3)c2s1)c1ncc(C(=O)NO)cn1 [Compound 168, 2-(((2-(1H-indazol-4-yl)-4-(pyridin-2-ylamino)thieno[3,2-d]pyrimidin-6-yl)methyl)(methyl)amino)-N-hydroxypyrimidine-5-carboxamide] |
| 200 to 212 °C | 100 to 1000 | < 100 | CN(Cc1cc2nc(-c3cccc4[nH]ccc34)nc(N3CCOCC3)c2s1)c1ncc(C(=O)NO)cn1 [Compound 176, 2-(((2-(1H-indol-4-yl)-4-morpholinothieno[3,2-d]pyrimidin-6-yl)methyl)(methyl)amino)-N-hydroxypyrimidine-5-carboxamide] |
| 146 to 156 °C | > 10000 | < 100 | CN(Cc1cc2nc(-c3cccc4c3CCN4)nc(N3CCOCC3)c2s1)c1ncc(C(=O)NO)cn1 [Compound 177, N-hydroxy-2-(((2-(indolin-4-yl)-4-morpholinothieno[3,2-d]pyrimidin-6-yl)methyl)(methyl)amino)pyrimidine-5-carboxamide] |
| 170 to 183 °C | 1000 to 10000 | < 100 | CN(Cc1cc2nc(-c3ccc4c(c3)NCCO4)nc(N3CCOCC3)c2s1)c1ncc(C(=O)NO)cn1 [Compound 182, 2-(((2-(3,4-dihydro-2H-benzo[b][1,4]oxazin-6-yl)-4-morpholinothieno[3,2-d]pyrimidin-6-yl)methyl)(methyl)amino)-N-hydroxypyrimidine-5-carboxamide] |
| 272 to 275 °C | > 10000 | < 100 | CN(Cc1cc2nc(-c3ccc4[nH]c(=O)[nH]c4c3)nc(N3CCOCC3)c2s1)c1ncc(C(=O)NO)cn1 [Compound 186, N-hydroxy-2-(methyl((4-morpholino-2-(2-oxo-2,3-dihydro-1H-benzo[d]imidazol-5-yl)thieno[3,2-d]pyrimidin-6-yl)methyl)amino)pyrimidine-5-carboxamide] |
| 270 °C (dec.) | > 10000 | < 100 | CN(Cc1cc2nc(-c3ccc4c(c3)CC(=O)N4)nc(N3CCOCC3)c2s1)c1ncc(C(=O)NO)cn1 [Compound 194, N-hydroxy-2-(methyl((4-morpholino-2-(2-oxoindolin-5-yl)thieno[3,2-d]pyrimidin-6-yl)methyl)amino)pyrimidine-5-carboxamide] |
| 214 to 217 °C | 100 to 1000 | < 100 | CN(Cc1cc2nc(-c3cn[nH]c3)nc(N3CCOCC3)c2s1)c1ncc(C(=O)NO)cn1 [Compound 196, N-hydroxy-2-(methyl((4-morpholino-2-(1H-pyrazol-4-yl)thieno[3,2-d]pyrimidin-6-yl)methyl)amino)pyrimidine-5-carboxamide] |
| 175 to 189 °C | < 100 | < 100 | CN(Cc1cc2nc(-c3cc[nH]c3)nc(N3CCOCC3)c2s1)c1ncc(C(=O)NO)cn1 [Compound 197, N-hydroxy-2-(methyl((4-morpholino-2-(1H-pyrrol-3-yl)thieno[3,2-d]pyrimidin-6-yl)methyl)amino)pyrimidine-5-carboxamide] |
| 168 to 170 °C | > 10000 | < 100 | CN(Cc1cc2nc(-c3ccc(F)cc3)nc(N3CCOCC3)c2s1)c1ncc(C(=O)NO)cn1 [Compound 200, 2-(((2-(4-fluorophenyl)-4-morpholinothieno[3,2-d]pyrimidin-6-yl)methyl)(methyl)amino)-N-hydroxypyrimidine-5-carboxamide] |
| 170 to 172 °C | 100 to 1000 | < 100 | Cc1ccc(-c2nc(N3CCOCC3)c3sc(CN(C)c4ncc(C(=O)NO)cn4)cc3n2)cc1 [Compound 201, N-hydroxy-2-(methyl((4-morpholino-2-p-tolylthieno[3,2-d]pyrimidin-6-yl)methyl)amino)pyrimidine-5-carboxamide] |
| 222 to 223 °C | 100 to 1000 | < 100 | CN(Cc1cc2nc(-c3ccc(C(F)(F)F)cc3)nc(N3CCOCC3)c2s1)c1ncc(C(=O)NO)cn1 [Compound 202, N-hydroxy-2-(methyl((4-morpholino-2-(4-(trifluoromethyl)phenyl)thieno[3,2-d]pyrimidin-6-yl)methyl)amino)pyrimidine-5-carboxamide] |
| 217 to 223 °C | 100 to 1000 | < 100 | Nc1ccc(-c2nc(N3CCOCC3)c3sc(CNc4ncc(C(=O)NO)cn4)cc3n2)cc1 [Compound 211, 2-((2-(4-aminophenyl)-4-morpholinothieno[3,2-d]pyrimidin-6-yl)methylamino)-N-hydroxypyrimidine-5-carboxamide] |
| > 300 °C | < 100 | < 100 | Nc1ncc(-c2nc(N3CCOCC3)c3sc(NS(=O)(=O)c4ccc(/C=C/C(=O)NO)cc4)cc3n2)cn1 [Compound 217, (E)-3-(4-(N-(2-(2-aminopyrimidin-5-yl)-4-morpholinothieno[3,2-d]pyrimidin-6-yl)sulfamoyl)phenyl)-N-hydroxyacrylamide] |
| > 300 °C | < 100 | < 100 | Nc1ncc(-c2nc(N3CCOCC3)c3sc(NS(=O)(=O)c4cccc(/C=C/C(=O)NO)c4)cc3n2)cn1 [Compound 218, (E)-3-(3-(N-(2-(2-aminopyrimidin-5-yl)-4-morpholinothieno[3,2-d]pyrimidin-6-yl)sulfamoyl)phenyl)-N-hydroxyacrylamide] |
| > 300 °C | < 100 | < 100 | COc1ccc(-c2nc(N3CCOCC3)c3sc(NS(=O)(=O)c4cccc(/C=C/C(=O)NO)c4)cc3n2)cn1 [Compound 221, (E)-N-hydroxy-3-(3-(N-(2-(6-methoxypyridin-3-yl)-4-morpholinothieno[3,2-d]pyrimidin-6-yl)sulfamoyl)phenyl)acrylamide] |
| > 300 °C | 100 to 1000 | < 100 | COc1ccc(-c2nc(N3CCOCC3)c3sc(NS(=O)(=O)c4ccc(/C=C/C(=O)NO)cc4)cc3n2)cn1 [Compound 222, N-Hydroxy-3-{4-[2-(6-methoxy-pyridin-3-yl)-4-morpholin-4-yl-thieno[3,2-d]pyrimidin-6-ylsulfamoyl]-phenyl}-acrylamide] |
| 220 to 230 °C | < 100 | 1000 to 10000 | Nc1ncc(-c2nc(N3CCOCC3)c3sc(NCCCC(=O)NO)cc3n2)cn1 [Compound 225, 4-(2-(2-aminopyrimidin-5-yl)-4-morpholinothieno[3,2-d]pyrimidin-6-ylamino)-N-hydroxybutanamide] |
| 175 to 180 °C | < 100 | < 100 | Nc1ncc(-c2nc(N3CCOCC3)c3sc(NCCCCC(=O)NO)cc3n2)cn1 [Compound 226] |
| 206 to 210 °C | < 100 | < 100 | CNc1ncc(-c2nc(N3CCOCC3)c3sc(NCCCCC(=O)NO)cc3n2)cn1 [Compound 227, N-Hydroxy-5-(2-(2-(methylamino)pyrimidin-5-yl)-4-morpholinothieno[3,2-d]pyrimidin-6-ylamino)pentanamide] |
